One assay concerns the target T1, IRAK-1 (Homo sapiens, UniProt P51617).
T1 construct: His6 (N); Dr.Jaekel Pool B, 232Y08C1.IRK
The assay can be described thus: Test for the inhibition of IRAK1 (autophosphorylation, flashplate). The note with it: enzyme. It is filed as biochemical. How it is done: (§1) The experimental batches are carried out in a flashplate system with 384 wells/microtitre plate. In each case, in order to investigate the inhibition of the autophosphorylation activity of IRAK1, the IRAK1 sample His6-IRAK1 (5.1 nM), 1 μM ATP (with 0.25 μCi of ^33P-ATP/well) and the test substance in 50 μl of conventional experimental solution per well are incubated at 22° C. for 180 min. The test substances are employed in corresponding concentrations (if desired in a dilution series). The control is carried out without test substance. The reaction is stopped using standard methods and washed. The activity of the kinase is measured via the incorporated radioactivity in top count. In order to determine the non-specific kinase reaction (blank value), the experimental batches are carried out in the presence of 1 μM staurosporin. The radioactivity (decompositions per minute) of the blank value (no use of test substance in the presence of 1 μM staurosporin) is subtracted from all other radioactivity values. The controls (kinase activity without test substance) are set equal to 100 percent and all other radioactivity values (after subtracting the blank value) are expressed set in relation thereto (for example in % of the control). IC50 values (50% inhibition) are determined with the aid of statistics programs, such as, for example, RS1.

The target in assay [1] is T2, IRAK-4 (Homo sapiens, UniProt Q9NWZ3).
T2 construct: His6 (N); Dr.Jaekel
T2 sequence (Q9NWZ3 1-460): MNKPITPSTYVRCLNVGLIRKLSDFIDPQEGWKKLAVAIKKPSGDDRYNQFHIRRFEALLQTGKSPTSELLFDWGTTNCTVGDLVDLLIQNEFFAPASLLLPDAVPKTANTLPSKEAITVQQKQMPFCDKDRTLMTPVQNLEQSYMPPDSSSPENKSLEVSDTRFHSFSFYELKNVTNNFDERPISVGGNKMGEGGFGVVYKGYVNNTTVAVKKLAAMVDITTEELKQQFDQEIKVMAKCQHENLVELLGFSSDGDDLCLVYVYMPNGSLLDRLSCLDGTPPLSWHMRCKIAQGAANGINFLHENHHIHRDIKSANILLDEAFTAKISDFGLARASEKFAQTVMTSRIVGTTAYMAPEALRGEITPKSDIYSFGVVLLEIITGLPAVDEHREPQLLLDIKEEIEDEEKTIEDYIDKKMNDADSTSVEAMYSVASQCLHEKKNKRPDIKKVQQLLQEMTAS
The assay is described as follows: Test for the inhibition of IRAK4 (flashplate, 33P-ATP). It is filed as biochemical. The note with it: enzyme. How it is done:
as §1, with “case,” for “case, in order to investigate”, “the IRAK4 sample His6-IRAK4 (7.3 nM),” for “the inhibition of”, “the biotinylated substrate peptide STK substrate 1-biotin (Cisbio Bioassays, France) (300” for “the autophosphorylation activity of IRAK1, the IRAK1 sample His6-IRAK1 (5.1”, “nM), 10” for “nM), 1”

Assay [2] has as its target T2, IRAK-4. The assay can be described thus: IC50 IRAK-4 (cell). It is filed as cell-based.

T1 sequence (P51617 whole entry, species assumed): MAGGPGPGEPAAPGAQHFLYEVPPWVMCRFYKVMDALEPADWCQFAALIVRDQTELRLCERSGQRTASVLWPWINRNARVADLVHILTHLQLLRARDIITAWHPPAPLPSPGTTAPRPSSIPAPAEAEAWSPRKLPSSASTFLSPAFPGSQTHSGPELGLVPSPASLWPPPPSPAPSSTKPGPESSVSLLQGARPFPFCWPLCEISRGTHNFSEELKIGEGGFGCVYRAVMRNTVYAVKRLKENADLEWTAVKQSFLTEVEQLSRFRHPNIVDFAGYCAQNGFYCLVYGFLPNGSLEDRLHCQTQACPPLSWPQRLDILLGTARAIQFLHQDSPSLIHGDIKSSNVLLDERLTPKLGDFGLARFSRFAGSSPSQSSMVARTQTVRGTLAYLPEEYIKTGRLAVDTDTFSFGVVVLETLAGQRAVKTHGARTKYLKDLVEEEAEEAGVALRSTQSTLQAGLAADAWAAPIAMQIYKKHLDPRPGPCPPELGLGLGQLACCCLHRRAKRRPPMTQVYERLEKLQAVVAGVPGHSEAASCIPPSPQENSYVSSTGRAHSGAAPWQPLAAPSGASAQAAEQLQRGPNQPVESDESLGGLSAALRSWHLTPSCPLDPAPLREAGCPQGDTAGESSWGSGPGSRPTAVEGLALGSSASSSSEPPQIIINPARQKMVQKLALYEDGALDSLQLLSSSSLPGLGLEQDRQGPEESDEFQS

The term IC50 denotes the point on the concentration scale where inhibition reaches its midpoint. For `CCCn1cc(-c2cnc(N)c(-c3nc4ccccc4[nH]3)c2)cn1` [Compound A44], the IC50 on IRAK-1, against IRAK-4 [1] and on IRAK-4 [2] was 0.1 to 10 µM in each case.

Turning to `COc1ccc2nc(-c3cc(-c4cnn(C(C)C)c4)cnc3N)[nH]c2c1` [Compound A107, 5-(1-Isopropyl-1H-pyrazol-4-yl)-3-(6-methoxy-1H-benzimidazol-2-yl)pyridin-2-ylamine], the values for the IC50 on IRAK-1, on IRAK-4 [1] and against IRAK-4 [2] were 0.001 to 0.1 µM, 0.001 to 0.1 µM and 0.1 to 10 µM, respectively.

For the origin of these results see US8648201B2, “Aminopyridine derivatives for treating tumors and inflammatory diseases” (MERCK PATENT GmbH, priority 2009, dated 2014).
